Patent US7429482B2, “Screening tools for discovery of novel anabolic agents” (United States of America as represented by the Department …, priority 2005, dated 2008)

Experiments:
IGF-1 = assay: Acute denervation: IGF-1 mRNA in EDL and soleus (qPCR); format: in vivo, rat; settings: nandrolone 1.5 mg/kg/wk 14 days
Method: Male Wistar rats weighing 250 gm (Taconic Farms, Germantown, N.Y.) were provided food and water ad libitum and were housed in a temperature and humidity controlled environment providing a 12:12 hour day-night cycle. For surgical procedures, animals were anesthetized with ketamine/xylazine. The left sciatic nerve was exposed by blunt dissection, and a 1 to 2 mm piece of this nerve was excised just below the level of the femoral head. A sham surgery was performed on the right hind limb in which the sciatic nerve was exposed but was not transected. Model 2002 Alzet pumps were implanted subcutaneously on the back. […] A pellet containing 15 mg of testosterone (Innovative Research of America, Sarasota, Fla.) administered as a continuous infusion (5 mg/wk), or a pellet containing placebo, was inserted into a subcutaneous pouch. […] Because testosterone is known to have anabolic actions (Ferrando et al., Am J Physiol Endocrinol Metab 282: E601-E607, 2002; Mauras et al., J Clin Endocrinol Metab 83: 1886-1892, 1998; Urban et al., Am J Physiol 269: E820-E826, 1995), reductions in levels of this hormone could affect muscle mass and confound interpretation of the results. Animals were euthanized 14 days later by inhalation of carbon dioxide. […]
Total RNA was extracted from skeletal muscle (20 mg) by homogenization in guanidine thiocyanate using a Polytron followed by extraction using phenol-chloroform (Chomczynski and Sacchi, Anal Biochem 162: 156-159, 1987). […] Total RNA was then eluted and quantified by absorbance at 260 nm. […] Levels of gene expression in the denervated muscle were expressed as fold induction relative to muscle from the sham-denervated leg of animals administered vehicle. […] Fold-induction was determined using the 2^−ΔΔCt method, using expression of 18S RNA as the normalization control. […]

GR = settings: Danhaive and Rousseau 1986; cited from earlier work
human IGF-1 promoter = assay: Human IGF-1 promoter luciferase reporter assay in HepG2 cells; format: cell-based
Text: pREP4.hAR, expressing full length human AR, and pCMV.Sport.β-Gal, expressing β-galactosidase under a CMV promoter, were as described (Zhao et al., Steroids 69: 357-366, 2004). pcDNA5.rGR, expressing rat glucocorticoid receptor, was provided by Dr. Diane Robins (University of Michigan). The rARC562G vector expressing rat AR with a C562G mutation in the DBD, which results in a loss of DNA binding. The IGF-1 reporter genes pOLuc.1630, pOLuc1300, pOLuc926, pOLuc 320 were provided by Dr. Peter Rotwein (Oregon Health & Science University). These reporters expressed firefly luciferase under the control of 320 to 1630 bases upstream of the transcriptional start site of the human IGF-1 promoter as described in (Kim et al., Mol Endocrinol 5: 1964-1972, 1991). pEGX 4T-1 hAR2, expressing GST fused to the N-terminus of AR DNA-binding domain, was provided by Robert J. Matusik, Ph.D. (Vanderbuilt University Medical Center). pRL-CMV expressing Renilla luciferase was from Promega (Madison, Wis.).
HepG2 cells (ATCC, Bethesda, Md.) were maintained in Dulbecco's modified Eagle's medium (DMEM), supplemented with 10% fetal bovine serum (FBS) and antibiotics (penicillin 100 U/ml, streptomycin 100 μg/ml). Cells were seeded at 5×10^4 cells/per well into wells of 24-well plates containing DMEM supplemented with 10% charcoal-dextran stripped FBS (CDS-FBS). The next day, cells were transfected with a total of 300 ng DNA per well using Lipofectamine Plus (Invitrogen) with plasmids as indicated in the figure legends. Three hours after transfection, cells were covered with DMEM supplemented with 10% CDS-FBS and either hormone dissolved in ethanol, or ethanol, as indicated in the figures. […] After overnight incubation, activities of firefly and Renilla luciferase were determined using the Dual Luciferase Assay system (Promega).
Reporter plasmids expressing firefly luciferase under the control of upstream regions of the IGF-1 promoter were constructed by PCR amplification of segments of interest using primers shown in Table 2, using pOLuc-1630 as a template. The location of each amplified fragment is relative to the transcriptional start site. PCR amplification was conduced using a high fidelity Taq polymerase (Pfx, Invitrogen). PCR products were cloned into pCR2.1-TOPO TA (Invitrogen) and the sequences of the inserts were verified. Inserts were excised with Kpn I and Xho I, and were subcloned into pGL3-Promoter (Promega) at these same sites. PGL3-Promoter expresses firefly luciferase under the control of a minimal promoter.

[1] = HepG2 + AR, increasing doses of testosterone
[2] = HepG2 + AR, testosterone (FIG. 17)

| SMILES | IGF-1 expression (IGF-1; denervated EDL) | IGF-1 expression (IGF-1; denervated or sham-denervated soleus) | IGF-1 expression (IGF-1; sham-denervated EDL) | Kd (GR) [µM] | activation of the upstream promoter of the human IGF-1 gene (human IGF-1 promoter; Hep G2 cells, FIG. 18) | dose at which induction of luciferase expression begins, pGL3-230 (ARE1) (human IGF-1 promoter; HepG2 + AR) [nM] | induction of pGL3-32 at the lowest concentration tested (human IGF-1 promoter; HepG2 + AR, 0.05 nM testosterone) [fold] | maximal induction and sensitivity, pGL3-13A (ARE2) (human IGF-1 promoter; [1]) | plateau of induction, pGL3-32 (both AREs) (human IGF-1 promoter; [1]) [fold] | plateau of induction, pGL3-230 (ARE1) (human IGF-1 promoter; [1]) | increase in luciferase expression, construct containing ARE2 (pGL3-13A) (human IGF-1 promoter; HepG2 + AR, testosterone) | increase in luciferase expression, reporters including ARE1 (pGL3-230, pGL3-22) (human IGF-1 promoter; HepG2 + AR, testosterone) | induction of reporter containing both ARE1 and ARE2 (pGL3-32) (human IGF-1 promoter; HepG2 + AR, testosterone) | responsiveness of reporter with 100 bases downstream of ARE2 (pGL3-25a) (human IGF-1 promoter; HepG2 + AR, testosterone) | activation of reporter p3-13a (ARE2) (human IGF-1 promoter; [2]) | activation of reporter p3-32 (both AREs) (human IGF-1 promoter; [2]) [fold] | induction of luciferase expression with DBD mutant AR (AR-C562G) (human IGF-1 promoter; HepG2, pGL3-22, pGL3-13A, pGL3-32, testosterone 50 nM) |
| --- | --- | --- | --- | --- | --- | --- | --- | --- | --- | --- | --- | --- | --- | --- | --- | --- | --- |
| C[C@]12CC[C@H]3[C@@H](CCC4=CC(=O)CC[C@@H]43)[C@@H]1CC[C@@H]2O [nandrolone] | significantly reduced | did not significantly affect | significantly reduced |  |  |  |  |  |  |  |  |  |  |  |  |  |  |
| C[C@]12CC[C@H]3[C@@H](CCC4=CC(=O)CC[C@@]43C)[C@@H]1CC[C@@H]2O [testosterone] |  |  |  | ~0.2 | activated | 0.25 | ~10 | intermediate | 25 | approximately 8 fold | more than 20 fold | more than 5 fold | greatest induction | Little androgen responsiveness | approximately 20 fold | ~30 | virtually abolished |
